Measurements from patent publication US20050080090A1, “Naphthalene derivatives” (priority 1993, published 2005).
Structures can show the parent of a compound that is named as a salt.

Row | Compound | melting point
1 | O=C(Nc1ccc2cccc(N3CCNCC3)c2c1)c1ccccc1 | 141.5 to 144 °C
2 | CCCN1CCN(c2cccc3ccc(NC(=O)c4ccc(Cl)cc4)cc23)CC1 [Example 66, 7-(4-Chlorobenzamido)-1-(4-propyl-1-piperazinyl)-naphthalene] | 130 to 132 °C
3 | CN1CCN(c2cccc3ccc(NC(=O)c4cccc(C#N)c4)cc23)CC1 [Example 9, 7-(3-Cyanobenzamido)-1-(4-methyl-1-piperazinyl)-naphthalene] | 220 to 222 °C
4 | CCCCCC(=O)Nc1ccc2cccc(N3CCN(C)CC3)c2c1 [Example 17, 7-Hexanamido-1-(4-methyl-1-piperazinyl)-naphthalene] | 144 to 146 °C
5 | CN1CCN(c2cccc3ccc(OC(=O)c4ccc(Cl)cc4)cc23)CC1 [Example 53, 7-(4-Chlorobenzoyloxy)-1-(4-methyl-1-piperazinyl)-naphthalene] | 110 to 111 °C
6 | CN1CCN(c2cccc3ccc(N)cc23)CC1 | 157 to 159 °C
7 | CN1CCN(c2cccc3ccc(NCc4cccc5ccccc45)cc23)CC1 [Example 13, 7-(1-Naphthylmethylamino)-1-(4-methyl-1-piperazinyl)-naphthalene] | 140 to 141 °C
8 | CN1CCN(c2cccc3ccc(NC(=O)c4cccc([N+](=O)[O-])c4)cc23)CC1 [Example 4, 7-(3-Nitrobenzamido)-1-(4-methyl-1-piperazinyl)-naphthalene] | 182 to 184 °C
9 | Cl.O=CNc1ccc2cccc(C[C@H]3CCCN3)c2c1 | 223.5 to 224 °C
10 | CN1CCN(c2cccc3ccc(NC(=O)C(F)(F)F)cc23)CC1 | 159 to 160 °C
11 | CN1CCN(c2cccc3ccc(OCc4ccccc4)cc23)CC1 [Example 49, 7-(Benzyloxy)-1-(4-methyl-1-piperazinyl)-naphthalene] | 81.5 to 82.5 °C
12 | CN1CCN(c2cccc3ccc(Nc4ncccc4N)cc23)CC1 (hydrate or solvate) [Example 29, 7-(3-Amino-2-pyridylamino)-1-(4-methyl-1-piperazinyl)-naphthalene] | 198 to 200 °C
13 | CN1CCN(c2cccc3ccc(NC(=O)OCc4ccccc4)cc23)CC1 [Example 20, 7-(Benzyloxycarbonylamino)-1-(4-methyl-1-piperazinyl)-naphthalene] | 143 to 144 °C
14 | CN1CCN(c2cccc3ccc(Nc4ccccc4[N+](=O)[O-])cc23)CC1 [Example 28, 7-(2-Nitrophenylamino)-1-(4-methyl-1-piperazinyl)-naphthalene] | 87 to 94 °C

Other lines, results leading:

Row | melting point | Compound
15 | 137 to 145 °C | CN1CCC(c2cccc3ccc(NC(=O)c4ccccc4)cc23)C1 (stereo not drawn) [Example 69, 7-Benzamido-1-(1-methyl-3-pyrrolidinyl)-naphthalene]
16 | 124 to 124.5 °C | CN1CCN(c2cccc3ccc(C(=O)c4ccccc4)cc23)CC1 [Example 43, 7-Benzoyl-1-(4-methyl-1-piperazinyl)naphthalene]
17 | 72 to 74 °C | CN1CCN(c2cccc3ccc(C(=O)NCc4ccc(Cl)cc4)cc23)CC1 [Example 80, 8-(4-Methylpiperazin-1-yl)naphthalene-2-carboxylic Acid 4-chlorobenzylamide]
18 | > 250 °C | c1cc(N2CCNCC2)c2cc(-n3nnc4ncccc43)ccc2c1 (as salt: hydrochloride)
19 | 147.5 to 148 °C | CNS(=O)(=O)c1cccc(-c2ccc3cccc(N4CCN(C)CC4)c3c2)c1 [Example 41, 7-(3-Methylaminosulfonylphenyl)-1-(4-methyl-1-piperazinyl)naphthalene]
20 | 156 to 160 °C | CN1CCN(c2cccc3ccc(NC(=O)c4ccc(O)cc4)cc23)CC1 [Example 10, 7-(4-Hydroxybenzamido)-1-(4-methyl-1-piperazinyl)-naphthalene]
21 | 162.5 to 163 °C | CN1CCN(c2cccc3ccc(C(O)c4ccccc4)cc23)CC1 (stereo not drawn) [Example 44, 7-(α-Hydroxybenzyl)-1-(4-methyl-1-piperazinyl)-naphthalene]
22 | 134 to 148 °C | COCCN1CCN(c2cccc3ccc(NC(=O)c4ccc(Cl)cc4)cc23)CC1 (as salt: hydrochloride) [Example 65, 7-(4-Chlorobenzamido)-1-(4-methoxyethyl-1-piperazinyl)-naphthalene]
23 | > 250 °C | CN1CCCC(c2cccc3ccc(-n4cnc5ncccc54)cc23)C1 (stereo not drawn) (as salt: HCl) [Example 63, 7-(Imidazolo[4,5-b]pyridin-1-yl)-1-(1-methyl-3-piperidinyl)-naphthalene]
24 | 110 to 114 °C (dec.) | CC(=O)Nc1cccnc1Nc1ccc2cccc(N3CCN(C)CC3)c2c1 [Example 31, 7-(3-Acetamido-2-pyridylamino)-1-(4-methyl-1-piperazinyl)-naphthalene]
25 | 205 to 207 °C | CN1CCN(c2cccc3ccc(Nc4ncccc4NC(=O)c4ccccc4)cc23)CC1 [Example 30, 7-(3-Benzamido-2-pyridylamino)-1-(4-methyl-1-piperazinyl)-naphthalene]
26 | 70 to 71 °C | CN1CCN(c2cccc3ccc(OS(=O)(=O)C(F)(F)F)cc23)CC1 [Example 55, 7-Trifluoromethylsulfonyloxy-1-(4-methyl-1-piperazinyl)-naphthalene]
27 | 153 to 154 °C | CN1CCN(c2cccc3ccc(Nc4ccc([N+](=O)[O-])cc4[N+](=O)[O-])cc23)CC1
28 | 127.5 to 129 °C | CN1CCN(c2cccc3ccc(Nc4ncccc4[N+](=O)[O-])cc23)CC1 [Example 25, 7-(3-Nitro-2-pyridinylamino)-1-(4-methyl-1-piperazinyl)-naphthalene]
29 | 177 to 180 °C | CC(=O)Nc1ccc2cccc(N3CCN(C)CC3)c2c1
30 | 236 to 238 °C | COc1cccc(-c2ccc3cccc(N4CCN(C)CC4)c3c2)c1 (as salt: hydrochloride) [Example 81, 7-(3-Methoxyphenyl)-1-(4-methylpiperazin-1-yl)naphthalene]
31 | 157 to 160 °C | CN1CCN(c2cccc3ccc(Nc4nc(Cc5ccccc5)cs4)cc23)CC1 [Example 24, 4-Benzyl-2-[-1-(4-methyl-1-piperazinyl)-7-naphthylamino]-thiazole]
32 | 254 to 256 °C | CN1CCN(c2cccc3ccc(NC(=O)c4cc([N+](=O)[O-])cc([N+](=O)[O-])c4)cc23)CC1
33 | 205 to 206 °C | CN1CCN(c2cccc3ccc(OCc4ccc(C(F)(F)F)cc4)cc23)CC1 (as salt: hydrochloride) [Example 51, 7-(4-Trifluoromethylbenzyloxy)-1-(4-methyl-1-piperazinyl)-naphthalene]
